Data as given in patent US5561154A, “Treatment of acute urinary retention” (Institut de Recherches Chimiques et Bioloques Appliquees …, priority 1995, dated 1996).
Where a name gives a salt, the structure may show the parent alone. Read-outs that look alike come from different tables or passages of the source.

Assays:
α2 -adrenoreceptors = experiment: Radioligand binding, (3H)-rauwolscine, rabbit urethral membranes; conditions: male rabbit urethral membrane preparation
Procedure: (§1) α-adrenoreceptors can be by use of a ^3 H- or 125 I- labelled specific antagonist (or agonist) on membrane preparations of the concerned organ, here rabbit urethra.
(§2) A male rabbit urethral grinding was filtered then centrifugated. The filtrate thus obtained is a membrane preparation which was incubated with a radioactive ligand, namely (^125 I)-HEAT [wherein HEAT is 2-[2-(3-iodio-4-hydroxyphenyl)ethyl-aminoethyl]-tetralone for the α1 -adrenoreceptors, and (^3 H)-rauwolscine for the α2 -adrenoreceptors.
(§3) The incubations were carded out in the absence or in the presence of an increasing concentration of the product to be tested. The affinity was measured by means of the inhibition coefficient (Ki).

[1] = system: urethral and arterial pressures induced by noradrenaline; experiment: Anesthetized rabbits: noradrenaline-induced increases in urethral and arterial pressure; assay type: in vivo, rabbit; conditions: Oryctolagus cuniculus, iv, noradrenaline-induced increase, i.v.
Procedure: Male White New-Zealand rabbits (weighing 3 kg each) were anesthetized with ethyl-urethane. Arterial pressure (AP) was measured with a pressure captor linked to a catheter located in the carotid; urethral pressure (UP) was determined with a pressure captor linked to a catheter introduced into the urethra and located at the level of the vesical base. The femoral vein was also catheterized for administering the products to be tested.
The increases in the urethral and arterial pressures, which were induced by noradrenaline, were determined after i.v. injections of increasing doses for periods of 3 minutes each, from 15 minutes before the injection of the α-blocking product to be tested to 15 minutes after said injection.
The results thus obtained are expressed hereinafter an inhibiting dose 50% (ID-50) which is defined as the dose of a-blocking product in the presence of which, the effect of the largest dose of noradrenaline is divided by a factor 2.

[2] = cited from earlier work
[3] = system: increase in UP induced by electric stimulation of the hypogastric nerve; experiment: Anesthetized dogs: hypogastric nerve stimulation, urethral pressure, AP and HR; assay type: in vivo, dog; conditions: anesthetized Beagle dogs
Procedure: Adult male Beagle dogs were anesthetized by i.v. injection of sodium barbital (30 mg/kg).
The cannulation of each carotid and urethra allowed measurement of AP and UP. By derivation of the AP signal, the heart rate (HR) was recorded.
The increase in UP was induced by electric stimulation of the hypogastric nerve distal roots (10 ms, 30 Hz, 5s, 6-10 V). That increase in UP is determined before and 15 minutes after the injection of the α-blocking agent to be tested.
The results were expressed by calculating a ID-50 defined as the dose of α-blocking agent which inhibits 50% of the effects of the hypogastric nerve stimulation on UP. The effects of said ID-50 were determined on AP and HR in order to obtain a variation percentage with respect to the initial values.

[4] = target: T1, isolated rabbit urethra (contraction induced by noradrenaline) (Oryctolagus cuniculus, UniProt O02824); experiment: Isolated rabbit urethra: antagonism of noradrenaline-induced contraction; assay type: cell-based; conditions: against noradrenaline, isolated male rabbit urethra, 5 experiments; read-out: pA2 (converted)
T1 construct: from tissue; host or cells: isolated urethra of male rabbits
T1 sequence (O02824 1-466): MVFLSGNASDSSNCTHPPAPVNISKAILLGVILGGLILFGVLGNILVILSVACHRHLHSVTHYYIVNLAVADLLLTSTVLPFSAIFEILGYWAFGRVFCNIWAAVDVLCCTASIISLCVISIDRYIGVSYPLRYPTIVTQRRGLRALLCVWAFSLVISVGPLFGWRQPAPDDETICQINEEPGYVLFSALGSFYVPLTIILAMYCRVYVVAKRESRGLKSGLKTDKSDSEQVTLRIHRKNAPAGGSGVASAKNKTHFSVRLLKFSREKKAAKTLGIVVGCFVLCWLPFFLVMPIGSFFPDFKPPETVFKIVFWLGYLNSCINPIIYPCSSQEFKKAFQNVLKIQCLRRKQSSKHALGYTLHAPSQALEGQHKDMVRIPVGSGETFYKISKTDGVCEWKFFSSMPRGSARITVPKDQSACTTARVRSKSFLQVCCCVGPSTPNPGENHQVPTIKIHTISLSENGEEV
Procedure: After slaughtering of male rabbits, each urethra was taken out then placed into a receptacle containing a physiological saline aqueous solution, and kept at 37° C. with an oxygen/carbon oxide mixture (95/5 p/p). One end of the urethra was fixed to a pressure captor linked to a recording device for measuring the organ contractions.
Contracturing effects of noradrenaline were determined by succesive infusions of increasing […] up to the contraction corresponding to the maximal amplitude. The measures were carded out with and without DAM.HCl.
The activity of DAM.HCl was measured as a pA2 value, pA2 being here the cologarithm of the antagonist molar concentration in the presence of which the noradrenaline concentration needs to be multiplied by two to obtain the same effect in the absence of antagonist.

liver = experiment: Absence of hepatotoxicity, 2-month daily i.v. injection in rats; assay type: in vivo, rat; conditions: male Wistar rats, 1.5 mg/kg daily i.v. for 2 months
Procedure: Adult male Wistar rats were daily injected with 1.5 mg/kg of DAM.HCl in saline solution (i.e. the solution of Ex 1) per i.v. route for 2 months, then slaughtered.

α1 -adrenoreceptors = experiment: Radioligand binding, (125I)-HEAT, rabbit urethral membranes
Procedure: as §1, §2, §3

[5] = pure water and aqueous solutions buffered at pH 5-7; cited from earlier work
[6] = Hepatotoxicity on administration (general statement); assay type: in vivo; conditions: administered iv at 50 mg or less doses
[7] = Stability in aqueous solution; assay type: physicochemical
Text: In the parent application it was pointed out that DAM, the active ingredient, is effectively soluble and stable in water in the form of its hydrochloride salt. Deacetyl moxisylyte hydrochloride (DAM.HCl) is soluble up to a concentration of 10% p/v, which is the upper therapeutically acceptable concentration, in pure (i.e. distilled, bidistilled or preferably deionized) water and in aqueous solutions buffered at pH 5-7. Water solutions containing 1% p/v of deacetyl moxisylyte hydrochloride without any antioxidant and kept at pH 5, 6 and 7, are stable for 15 days at 25° C. and for 90 minutes at 121° C. […] More details regarding the solubility and stability in water of DAM.HCl are given in the parent application.

Cc1cc(OCCN(C)C)c(C(C)C)cc1O [DAM.HCl, Deacetyl moxisylyte hydrochloride]
Ki (α2 -adrenoreceptors): 637 ± 94 nM | ED50 ([1]; n = 5, read-out: ID-50 i.v., AP (arterial pressure)): 3.5 ± 0.65 mg/kg | ED50 ([1]; n = 5, read-out: ID-50 i.v., UP (urethral pressure)): 0.4 ± 0.03 mg/kg | stability of water solution at 25° C. ([2]; 1% p/v, no antioxidant, pH 5, 6 and 7, 25° C.): 15 days | stability of water solution at 121° C. ([2]; 1% p/v, no antioxidant, pH 5, 6 and 7, 121° C.): 90 min | stability of water solution with Na2 SO3 at 95° C. ([2]; 1% p/v, pH 5, 6 and 7, sodium sulfite 0.1 p/v, 95° C., no coloration): 15 days | Effect of ID-50 on AP (variation percentage with respect to the initial values) ([3]; at the ID-50 dose): -6% | Effect of ID-50 on HR (variation percentage with respect to the initial values) ([3]; at the ID-50 dose): -5% | ID-50, effect on UP ([3]; hypogastric nerve stimulation, 15 minutes after injection, in mg/kg): 0.05 ± 0.01 | Kb [4]: 3.16 nM | hepatotoxicity (study of organs, analysis of the liver) (liver): no sign of hepatotoxicity | times more active on α1 -adrenoreceptors than on α2 -adrenoreceptors (α1 -adrenoreceptors; from Ki values of table II): six | Ki (α1 -adrenoreceptors; male rabbit urethral membrane preparation, (125I)-HEAT): 109 ± 20 nM | solubility (soluble up to a concentration) [5]: > 10 % p/v

CC(=O)Oc1cc(C(C)C)c(OCCN(C)C)cc1C [moxisylyte, 4-[2-(dimethylamino)ethoxy]-2-methyl-5-(1methylethyl)phenol acetate, reference compound]
stability of solution stabilized with dimethyl-beta-cyclodextrin at 45° C. ([2]; pH 5 solution, 1 mg/ml, dimethyl-beta-cyclodextrin as stabilizing agent, 45° C.): 3 months

Cc1cc(OCCN(C)C)c(C(C)C)cc1O [DAM, 4-[2-(dimethylamino)ethoxy]-2-methyl-5-(1-methylethyl)phenol]
hepatotoxicity i.v. [6]: substantially devoid of hepatotoxicity | stability in aqueous solution ([7]; aqueous solution): stable | degradation on sterilization of aqueous solution ([7]; classical sterilization, e.g. autoclave 15 minutes at 121° C. or sterilizing filtration): without degradation
